# Results taken from ChEMBL document CHEMBL3430912, “GSK Tres Cantos Anti-Kinetoplastid Screening (TCAKS) Data”.
# Columns and labels:
# Trypanosoma cruzi [1] = assay: GSK_TCAKS: pIC50 Trypanosoma cruzi viability assay using beta-GAL activity. This assay was run at single shot at 5uM compound concentration per well. The biological reagents consisted of NIH-3T3 host cells and trypomastigotes parasitic cells; both cell types were set to a 3.3 * 10^5 cells/mL dilution in assay DMEM by means of a CASY cell counter device using a 60um capillary. 6 uL of the mixture were dispensed per well (about 1 * 10^3 host-cells and 1 * 10^3 parasites) with a Multidrop Combi dispenser. […] In all wells, the percentage of DMSO never exceeded 0.5%. Plates incubated for four days at 37C, 5% CO2. The substrate used for the assay fluorescence intensity (FLINT) readout was resorufin-beta-D-galactopiranoside (Sigma-Aldrich) at 5uM per well. It was diluted in PBS supplemented with the soft detergent Igepal (Fluka).; assay type: functional, organism-based, Mus musculus; conditions: Tulahuen, NIH3T3
# Trypanosoma cruzi [2] = assay: (§1) GSK_TCAKS: pIC50 Trypanosoma cruzi Imaging: Infected Cells. […] Cells were then washed once with PBS before infection. T. cruzi trypomastigotes, collected at days 5 to 8 after infection from LLC-MK2 parasite infected cultures, were allowed to swim out for 4h at 37C from a centrifuged pellet (2,500 rpm/10 min/room temperature). Trypomastigotes were then collected and counted in a CASY Cell Counter. Trypomastigotes, in supplemented DMEM, were added to H9c2 cultures in a multiplicity of infection of 1 and incubated for 18 h. Cells were washed once with PBS before incubation of the infected H9c2 monolayer with trypsin (Life-Technologies) to detach cells from the flask. Cells were counted in a CASY Cell Counter using a 150 um capillary and their density set at 5 * 10^4 cells per mL in supplemented assay DMEM. Infected H9c2 were dispensed into 384-well poly-lysine coated assay plates at 50uL per well using a Multidrop Combi dispenser. After seeding them, the plates were incubated at 37C, 5% CO2 for 72h. Cultures were then fixed and stained by addition of 50 uL of a solution containing 8% formaldehyde and 4 uM DRAQ5 DNA dye (BioStatus, UK) per well. […] Five images were collected per well for reliable statistical analysis. Automated image analysis was performed with a script developed on Acapella High Content Imaging and Analysis Software (PerkinElmer). Output: percentage of infected cells per well as a second infection marker.; assay type: functional, organism-based, Rattus norvegicus; conditions: H9c2, 4 h
# Trypanosoma cruzi [3] = assay: GSK_TCAKS: pIC50 Trypanosoma cruzi Imaging: Amastigotes/Cell. […] Cells were then washed once with PBS before infection. T. cruzi trypomastigotes, collected at days 5 to 8 after infection from LLC-MK2 parasite infected cultures, were allowed to swim out for 4h at 37C from a centrifuged pellet (2,500 rpm/10 min/room temperature). Trypomastigotes were then collected and counted in a CASY Cell Counter. Trypomastigotes, in supplemented DMEM, were added to H9c2 cultures in a multiplicity of infection of 1 and incubated for 18 h. Cells were washed once with PBS before incubation of the infected H9c2 monolayer with trypsin (Life-Technologies) to detach cells from the flask. Cells were counted in a CASY Cell Counter using a 150 um capillary and their density set at 5 * 10^4 cells per mL in supplemented assay DMEM. Infected H9c2 were dispensed into 384-well poly-lysine coated assay plates at 50uL per well using a Multidrop Combi dispenser. After seeding them, the plates were incubated at 37C, 5% CO2 for 72h. Cultures were then fixed and stained by addition of 50 uL of a solution containing 8% formaldehyde and 4 uM DRAQ5 DNA dye (BioStatus, UK) per well. […] Five images were collected per well for reliable statistical analysis. Automated image analysis was performed with a script developed on Acapella High Content Imaging and Analysis Software (PerkinElmer). Output: number of amastigotes per cell as infection level measurement.; assay type: functional, organism-based, Rattus norvegicus; conditions: H9c2, 4 h
# Trypanosoma cruzi [4] = assay: as §1, with “H2C9” for “Trypanosoma cruzi”, “H9c2 Host Cardiomyocytes.” for “Infected Cells.”, “Number” for “percentage”, “H9c2 Host Cardiomyocytes nuclei to determine drug-related cytotoxicity.” for “infected cells per well as a second infection marker.”; assay type: functional, organism-based, Rattus norvegicus; conditions: H9c2, 4 h
# Leishmania donovani [5] = assay: GSK_TCAKS: pIC50 Leishmania donovani viability assay using fluorescence intensity. Assay plates (1536-well) were prepared by adding 30nL per well of compound. For single shot assay, the final compound concentration was 5uM. […] Briefly, eGFP LdBOB axenic amastigotes were harvested, fixed and counted in a CASY cell counter (Roche-Applied Science). A final concentration of 1.5 * 10^5 cells per well were prepared in amastigote media containing 500 U/mL penicillin/streptomycin (Invitrogen) and 6uL was dispensed to each experimental well using a Multidrop Combi dispenser (Thermo Scientific). 6uL of assay media was dispensed to control columns used as reference for 100% compound response. Following incubation for 72 h at 37C, 5% CO2, 2 uL of resazurin was added to each well at a final concentration of 0.5 mM in phosphate buffered saline (PBS) with IGEPAL (Sigma-Aldrich), 0.05% (v/v).; assay type: functional, organism-based
# Leishmania donovani [6] = assay: GSK_TCAKS: pIC50 Leishmania donovani Imaging: Infected Macrophages. Assay plates (384-well) were prepared by adding 250nL of compound to each well. For single shot assay, the final compound concentration was 5 uM. […] Automated image analysis was performed with a script developed on Acapella High Content Imaging and Analysis Software (PerkinElmer). Output: Percent of infected macrophage cells were reported for each well.; assay type: functional, organism-based, Homo sapiens; conditions: THP-1
# Leishmania donovani [7] = assay: GSK_TCAKS: pIC50 Leishmania donovani Imaging: Amastigotes/Macrophages. Assay plates (384-well) were prepared by adding 250nL of compound to each well. For single shot assay, the final compound concentration was 5 uM. […] Automated image analysis was performed with a script developed on Acapella High Content Imaging and Analysis Software (PerkinElmer). Output: Average number of amastigotes per macrophage cell were reported for each well.; assay type: functional, organism-based, Homo sapiens; conditions: THP-1
# Leishmania donovani [8] = assay: GSK_TCAKS: pIC50 Leishmania donovani Imaging: THP-1 Host Macrophages. Assay plates (384-well) were prepared by adding 250nL of compound to each well. For single shot assay, the final compound concentration was 5 uM. […] Automated image analysis was performed with a script developed on Acapella High Content Imaging and Analysis Software (PerkinElmer). Output: THP-1 cell count were reported for each well.; assay type: functional, organism-based, Homo sapiens
# [9] = tested on: Trypanosoma brucei brucei; assay: GSK_TCAKS: pIC50 Trypanosoma brucei viability assay using fluorescence intensity. Assay plates (1536-well) were prepared by dispensing 25nL of compound solution per well using an Echo acoustic dispenser (Labcyte).; assay type: functional, organism-based; conditions: Lister 427, 2 h
# [10] = tested on: Trypanosoma brucei brucei; assay: GSK_TCAKS: pIC50 Trypanosoma brucei viability assay using luminiscence. Assay plates (1536-well) were prepared. T. brucei cultures were harvested and counted in a CASY cell counter. A parasite suspension was prepared at a final concentration of 5 * 10^4 cells/mL in complete HMI9 medium and 6uL was dispensed to all wells containing compounds using a Multidrop Combi dispenser. 6uL of HMI9 media with 0.4% DMSO were dispensed to control columns. Plates were incubated for 24 h at 37C, 5% CO2 then tempered for 10 min at room temperature. ATP content was quantified by adding 4 uL of CellTiter-Glo Reagent (Promega) according to the manufacturer's instructions. Luminescence was measured using a ViewLux.; assay type: functional, organism-based; conditions: Lister 427, CASY
# [11] = GSK_TCAKS: pIC50 HepG2 human cell line viability assay using luminiscence. […] Seeding density was checked to ensure that new mono-layers were not more than 50% confluent at the time of harvesting. Cell suspension was added to 500 mL of the same medium at a final density of 1.2 * 10^5 cells/mL. This cell suspension was dispensed (25 uL, 3000 cells per well) into 384-well clear-bottom plates using a Multidrop Combi dispenser. Prior to addition of the cell suspension, the screening compounds (250 nL) were pre-dispensed into the plates with an Echo liquid handler. Plates were incubated for 48 h at 37C, 5% CO2. After incubation, plates equilibrated at room temperature for 30 min before proceeding to develop the luminescent signal. The signal developer, CellTiter-Glo Reagent, was allowed to equilibrate at room temperature for 30 min and added to the plates (25uL per well) using a Multidrop Combi dispenser. Plates were left for 10 min at room temperature for stabilization and then read using a ViewLux.; assay type: toxicity, cell-based
# NIH3T3 = assay: GSK_TCAKS: pIC50 NIH 3T3 cell line viability assay using luminiscence. Tissue culture surface treated assay plates (1536-well) were used. […] The 100% cells survival control was determined exposing the host-cells to a 0.5% DMSO concentration, whereas the 100% toxicity control was achieved by seeding the cells in presence of Amphotericin B at 50uM. Plates were incubated for four days at 37C, 5% CO2. The assay readout was developed by addition of 5uL of CellTiter-Glo Reagent following the manufacturer's instructions. Luminiscence was measured using a ViewLux.; assay type: functional, cell-based; conditions: Mus musculus, NIH3T3, 96 h
# [12] = biological target: Sterol 14-alpha demethylase (Trypanosoma cruzi (strain CL Brener), UniProt Q7Z1V1); assay: GSK_TCAKS: pIC50 CYP51 from Trypanosoma cruzi.; assay type: functional
# Chain of Sterol 14-alpha demethylase (Q7Z1V1 whole entry): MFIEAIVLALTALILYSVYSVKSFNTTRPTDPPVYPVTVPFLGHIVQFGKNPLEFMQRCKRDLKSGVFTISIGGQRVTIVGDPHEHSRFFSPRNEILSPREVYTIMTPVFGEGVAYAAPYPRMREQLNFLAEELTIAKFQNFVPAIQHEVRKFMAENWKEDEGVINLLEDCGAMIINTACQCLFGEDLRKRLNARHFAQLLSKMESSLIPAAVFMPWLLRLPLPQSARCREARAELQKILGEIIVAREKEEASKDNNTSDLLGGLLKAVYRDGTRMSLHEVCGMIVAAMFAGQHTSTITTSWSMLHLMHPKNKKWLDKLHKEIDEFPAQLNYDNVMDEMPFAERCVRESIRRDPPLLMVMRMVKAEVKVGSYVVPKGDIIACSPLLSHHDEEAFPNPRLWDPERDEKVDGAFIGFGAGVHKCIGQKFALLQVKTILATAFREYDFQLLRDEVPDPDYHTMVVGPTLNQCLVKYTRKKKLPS
Compound,IC50 (Trypanosoma cruzi [1]) [µM],IC50 (Trypanosoma cruzi [2]) [µM],IC50 (Trypanosoma cruzi [3]) [µM],IC50 (Trypanosoma cruzi [4]) [µM],IC50 (Leishmania donovani [5]) [µM],IC50 (Leishmania donovani [6]) [µM],IC50 (Leishmania donovani [7]) [µM],IC50 (Leishmania donovani [8]) [µM],IC50 [9] [µM],IC50 [10] [µM],IC50 at 48 h [11] [µM],IC50 (NIH3T3) [µM],IC50 [12] [µM]
Cc1cc(N(C)C)nc2ccc(Cc3cnc(N)nc3N)cc12,1.26,6.31,3.16,> 50.1,> 50.1,31.6,39.8,39.8,5.01,5.01,31.6,10,> 100
N#Cc1cc(N2CCCC2=O)ccc1Sc1ccccc1CO,0.251,0.398,0.251,> 50.1,> 50.1,> 50.1,> 50.1,> 50.1,39.8,31.6,> 100,> 50.1,20
Clc1ccc(CN2CCN(C3=NCCN3)CC2)cc1Cl,1.26,10,1,> 50.1,> 50.1,> 50.1,> 50.1,> 50.1,> 39.8,> 39.8,63.1,39.8,> 100
CCCc1nc2nc(N)nc(N)c2cc1CC,0.355,0.316,0.0794,12.6,2,39.8,39.8,> 50.1,20,25.1,20,31.6,> 100
N#Cc1c(Oc2cccc(Cl)c2)cccc1[N+](=O)[O-],0.316,0.631,0.126,15.8,7.94,10,7.94,> 50.1,0.00794,0.00501,25.1,20,> 100
COc1ccccc1-c1c(C)[nH]c2nc(N)nc(C)c12,0.178,0.251,0.126,> 50.1,12.6,25.1,15.8,> 50.1,25.1,> 39.8,> 100,> 50.1,> 100
O=C(NCC1CCCCC1)c1cnns1,2.51,3.16,2,> 50.1,12.6,> 50.1,10,> 50.1,1,1.26,39.8,> 50.1,> 100
O=C1CN(C2CCCc3c(OCc4ccncc4)cccc32)C(=O)N1C1CCCCC1 (stereo not given),0.251,0.0158,0.0126,> 50.1,> 50.1,> 50.1,> 50.1,> 50.1,15.8,> 39.8,> 100,> 50.1,0.02
Cc1cccc(NS(=O)(=O)c2ccc3c(c2)C(=O)c2cc(S(=O)(=O)Nc4cccc(C)c4C)ccc2-3)c1C,0.398,0.398,0.398,31.6,> 50.1,> 50.1,> 50.1,> 50.1,7.94,10,> 100,> 50.1,> 100
O=C(Cn1cnc([N+](=O)[O-])n1)Nc1ccc(Cl)cc1C(=O)c1ccccc1,0.251,1.26,0.316,> 50.1,> 50.1,> 50.1,> 50.1,> 50.1,20,31.6,> 100,> 50.1,10
